Experiment [1] concerns Candida albicans. The experiment is described as follows: Antifungal activity against Candida albicans up to 200 ug/ml by agar well diffusion method. It counts as functional, organism-based. For orientation: A growth-free zone around the sample is the usual read-out of agar diffusion tests.
Experiment [2] deals with Escherichia coli. The experiment is described as follows: Antibacterial activity against Escherichia coli up to 200 ug/ml by agar well diffusion method. It counts as functional, organism-based.
In experiment [3] the test system is Aspergillus niger. The experiment is described as follows: Antifungal activity against Aspergillus niger up to 200 ug/ml by agar well diffusion method. Type of experiment: functional, organism-based.
For experiment [4], the system named is Bacillus subtilis. The experiment is described as follows: Antibacterial activity against Bacillus subtilis up to 200 ug/ml by agar well diffusion method. It counts as functional, organism-based.
For experiment [5], the system named is THP-1. The experiment is described as follows: Anti-inflammatory activity in Homo sapiens (human) THP1 cells assessed as inhibition of LPS-induced TNF-alpha production preincubated at 10 uM for 30 min before LPS treatment measured after 24 hr by ELISA. It counts as functional. (In an ELISA, binding on a coated surface is turned into a signal by an enzyme label.)

For experiment [6], the system named is Aspergillus flavus. The experiment is described as follows: Antifungal activity against Aspergillus flavus up to 200 ug/ml by agar well diffusion method. Type of experiment: functional, organism-based.
Experiment [7] relates to Fusarium solani. The experiment is described as follows: Antifungal activity against Fusarium solani by agar well diffusion method. It counts as functional.
Experiment [8] deals with Salmonella typhimurium. The experiment is described as follows: Antibacterial activity against Salmonella enterica subsp. enterica serovar Typhimurium up to 200 ug/ml by agar well diffusion method. Type of experiment: functional, organism-based.
Experiment [9] has as its system THP-1. The experiment is described as follows: Anti-inflammatory activity in Homo sapiens (human) THP1 cells assessed as inhibition of LPS-induced IL-6 production preincubated at 10 uM for 30 min before LPS treatment measured after 24 hr by ELISA. Type of experiment: functional.
The subject of experiment [10] is Staphylococcus aureus. The experiment is described as follows: Antibacterial activity against Staphylococcus aureus by agar well diffusion method. It counts as functional.
In experiment [11] the test system is Escherichia coli. The experiment is described as follows: Antibacterial activity against Escherichia coli by agar well diffusion method. It counts as functional.
Experiment [12] deals with Aspergillus niger. The experiment is described as follows: Antifungal activity against Aspergillus niger by agar well diffusion method. It counts as functional.
The test system of experiment [13] is Salmonella typhimurium. The experiment is described as follows: Antibacterial activity against Salmonella enterica subsp. enterica serovar Typhimurium by agar well diffusion method. Type of experiment: functional.
In experiment [14] the test system is Candida albicans. The experiment is described as follows: Antifungal activity against Candida albicans by agar well diffusion method. It counts as functional.
The test system of experiment [15] is Fusarium solani. The experiment is described as follows: Antifungal activity against Fusarium solani up to 200 ug/ml by agar well diffusion method. It counts as functional, organism-based.
For experiment [16], the system named is Bacillus subtilis. The experiment is described as follows: Antibacterial activity against Bacillus subtilis by agar well diffusion method. Type of experiment: functional.
In experiment [17] the test system is THP-1. The experiment is described as follows: Anti-inflammatory activity in Homo sapiens (human) THP1 cells assessed as inhibition of LPS-induced TNF-alpha production preincubated at 1 uM for 30 min before LPS treatment measured after 24 hr by ELISA. It counts as functional.
In experiment [18] the test system is THP-1. The experiment is described as follows: Anti-inflammatory activity in Homo sapiens (human) THP1 cells assessed as inhibition of LPS-induced IL-6 production preincubated at 1 uM for 30 min before LPS treatment measured after 24 hr by ELISA. Type of experiment: functional.
Experiment [19] deals with Staphylococcus aureus. The experiment is described as follows: Antibacterial activity against Staphylococcus aureus up to 200 ug/ml by agar well diffusion method. Type of experiment: functional, organism-based.
The test system of experiment [20] is Aspergillus flavus. The experiment is described as follows: Antifungal activity against Aspergillus flavus by agar well diffusion method. Type of experiment: functional.

Structures are written as SMILES. Values after ≈ are worked out from the molar mass of the structure shown. Active and inactive are the calls of the source. The calls are words filed in the database; no cut-off is given here.

For orientation: inhibition means the share of the control response that was lost under treatment. For orientation: MIC means the lowest concentration found to suppress growth. A high value points to a need for much substance. In the case of `CCOC(=O)C1=C(C)NC(=S)NC1c1ccc(NC(=S)Nc2ccc(F)c(Cl)c2)cc1` (configuration not stated), the outcome with Candida albicans [1], with Escherichia coli [2], in the experiment with Aspergillus niger [3], in the experiment with Bacillus subtilis [4], in the experiment with Aspergillus flavus [6] and in the experiment on Salmonella typhimurium [8] was inactive. Moreover, the inhibition at 10 µM in the experiment with THP-1 [5] stood at 0%; in the experiment with THP-1 [9], 58%. For the same compound, the MIC in the experiment on Fusarium solani [7] was 95 mg/L (≈ 198 µM); with Staphylococcus aureus [10], 80 mg/L (≈ 167 µM).

With `CCOC(=O)C1=C(C)NC(=S)NC1c1ccc(NC(=S)Nc2cc(C(F)(F)F)ccc2Cl)cc1` (configuration not stated), the minimal inhibitory concentration (MIC) in the experiment with Escherichia coli [11] was determined as 80 mg/L (≈ 151 µM); in the experiment on Aspergillus niger [12] it was 90 mg/L (≈ 170 µM); in the experiment on Salmonella typhimurium [13], 90 mg/L (≈ 170 µM); with Candida albicans [14], 85 mg/L (≈ 161 µM); with Staphylococcus aureus [10], 90 mg/L (≈ 170 µM); against Bacillus subtilis [16] it was 85 mg/L (≈ 161 µM). Moreover, the inhibition at 10 µM in the experiment with THP-1 [5] was determined as 78%; in the experiment with THP-1 [9], 96%. For the same compound, the outcome with Aspergillus flavus [6] and with Fusarium solani [15] was inactive.

As to `CCOC(=O)C1=C(C)NC(=S)NC1c1ccc(NC(=S)Nc2cc(F)cc(F)c2)cc1` (configuration not stated), the outcome with Candida albicans [1], with Escherichia coli [2], in the experiment on Aspergillus flavus [6] and in the experiment with Fusarium solani [15] was inactive. Also, the MIC in the experiment on Aspergillus niger [12] is 85 mg/L (≈ 184 µM); in the experiment with Salmonella typhimurium [13], 90 mg/L (≈ 195 µM); against Staphylococcus aureus [10], 65 mg/L (≈ 141 µM); against Bacillus subtilis [16] it was 90 mg/L (≈ 195 µM). Besides, the inhibition at 10 µM in the experiment on THP-1 [5] turned out to be 55%; in the experiment with THP-1 [9], 82%.

As for `CCOC(=O)C1=C(C)NC(=S)NC1c1ccc(NC(=S)Nc2c(F)cccc2Cl)cc1` (configuration not stated), the MIC was determined as 85 mg/L (≈ 177 µM) against Escherichia coli [11]; 85 mg/L (≈ 177 µM) in the experiment with Aspergillus niger [12]; 60 mg/L (≈ 125 µM) in the experiment with Salmonella typhimurium [13]; 65 mg/L (≈ 136 µM) against Candida albicans [14]; 60 mg/L (≈ 125 µM) in the experiment with Staphylococcus aureus [10]; 80 mg/L (≈ 167 µM) with Bacillus subtilis [16]. Further, the inhibition at 10 µM with THP-1 [5] stood at 42%; with THP-1 [9], 56%. Besides, the result with Aspergillus flavus [6] and in the experiment on Fusarium solani [15] was inactive.

`C[C@@H]1C[C@H]2[C@@H]3CCC4=CC(=O)C=C[C@]4(C)[C@@]3(F)[C@@H](O)C[C@]2(C)[C@@]1(O)C(=O)CO` [DEXAMETHASONE]: the inhibition at 1 µM with THP-1 [17] came out at 71%; with THP-1 [18], 84%.

Turning to `CCOC(=O)C1=C(C)NC(=S)NC1c1ccc(NC(=S)Nc2ccc(C)c(C)c2)cc1` (configuration not stated), the result with Candida albicans [1], in the experiment with Staphylococcus aureus [19], in the experiment on Escherichia coli [2], in the experiment with Aspergillus niger [3], with Bacillus subtilis [4] and in the experiment with Aspergillus flavus [6] was inactive. Besides, the outcome in the experiment with Salmonella typhimurium [8] and in the experiment with Fusarium solani [15] was inactive. Moreover, the inhibition at 10 µM in the experiment on THP-1 [5] was found to be 0%; in the experiment with THP-1 [9] it was 8%.

Consider `CCOC(=O)C1=C(C)NC(=S)NC1c1ccc(NC(=S)Nc2c(C)cccc2F)cc1` (configuration not stated), for which the MIC in the experiment with Escherichia coli [11] amounted to 70 mg/L (≈ 153 µM); with Aspergillus niger [12], 55 mg/L (≈ 120 µM); against Salmonella typhimurium [13] it was 90 mg/L (≈ 196 µM); against Fusarium solani [7], 65 mg/L (≈ 142 µM); with Candida albicans [14], 50 mg/L (≈ 109 µM); in the experiment on Staphylococcus aureus [10] it was 90 mg/L (≈ 196 µM). Also, it took 60 mg/L (≈ 131 µM) to inhibit growth in the experiment with Aspergillus flavus [20] (MIC). Also, in the experiment on Bacillus subtilis [4], the result was inactive. For the same compound, the inhibition at 10 µM with THP-1 [5] was determined as 0%; with THP-1 [9] it was 16%.

For `CCCCc1ccc(NC(=S)Nc2ccc(C3NC(=S)NC(C)=C3C(=O)OCC)cc2)cc1` (configuration not stated), the outcome in the experiment with Candida albicans [1], with Staphylococcus aureus [19], with Escherichia coli [2], in the experiment with Aspergillus niger [3], in the experiment on Bacillus subtilis [4] and in the experiment with Aspergillus flavus [6] was inactive. The outcome with Salmonella typhimurium [8] and in the experiment with Fusarium solani [15] was inactive. For the same compound, the inhibition at 10 µM was 0% with THP-1 [5] and 8% with THP-1 [9].

Turning to `CCOC(=O)C1=C(C)NC(=S)NC1c1ccc(NC(=S)Nc2c(Cl)cccc2C(F)(F)F)cc1` (configuration not stated), the minimum inhibitory concentration (MIC) with Escherichia coli [11] is 90 mg/L (≈ 170 µM); in the experiment on Aspergillus niger [12] it was 90 mg/L (≈ 170 µM); in the experiment with Salmonella typhimurium [13], 90 mg/L (≈ 170 µM); in the experiment with Candida albicans [14], 85 mg/L (≈ 161 µM); with Staphylococcus aureus [10], 65 mg/L (≈ 123 µM); in the experiment with Aspergillus flavus [20] it was 90 mg/L (≈ 170 µM). Also, the outcome in the experiment on Bacillus subtilis [4] and with Fusarium solani [15] was inactive. The inhibition at 10 µM in the experiment on THP-1 [5] was determined as 46%; in the experiment on THP-1 [9], 62%.

As to `CCOC(=O)C1=C(C)NC(=S)NC1c1ccc(NC(=S)Nc2ccc(F)c(C)c2)cc1` (configuration not stated), the outcome in the experiment on Escherichia coli [2], in the experiment on Aspergillus niger [3], in the experiment with Bacillus subtilis [4], in the experiment with Aspergillus flavus [6] and in the experiment on Salmonella typhimurium [8] was inactive. For the same compound, the inhibition at 10 µM in the experiment on THP-1 [5] is 0%; in the experiment on THP-1 [9], 27%. Moreover, the figures for the minimal inhibitory concentration (MIC) against Fusarium solani [7], in the experiment on Candida albicans [14] and against Staphylococcus aureus [10] were 95 mg/L (≈ 207 µM), 95 mg/L (≈ 207 µM) and 80 mg/L (≈ 174 µM), respectively.

Source of the values: ChEMBL document CHEMBL3045793, “The synthesis, anti-inflammatory and antimicrobial activity evaluation of novel thioanalogs of 3,4-dihydrothiopyrimidin-2(1H)-one derivatives of N-aryl urea” (2012).
